For this assay, the target named is T1, Recombinant human HSD17B13 enzyme (Homo sapiens, UniProt Q7Z5P4).
T1 sequence (Q7Z5P4 20-300): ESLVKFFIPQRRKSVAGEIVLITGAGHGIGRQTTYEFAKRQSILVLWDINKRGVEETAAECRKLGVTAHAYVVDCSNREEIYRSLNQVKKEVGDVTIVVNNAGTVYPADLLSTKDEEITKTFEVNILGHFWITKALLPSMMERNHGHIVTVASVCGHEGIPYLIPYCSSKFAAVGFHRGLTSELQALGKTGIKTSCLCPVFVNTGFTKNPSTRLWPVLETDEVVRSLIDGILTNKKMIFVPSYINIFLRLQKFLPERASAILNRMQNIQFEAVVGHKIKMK
Put plainly: HSD17b13 NAD(P)H-Glo biochemical assay. As to conditions: 50 uM estradiol, 1 mM NAD+, NAD(P)H-Glo luminescence; read-out: HSD17β13 IC50. The gist of the method:
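Recombinant human HSD17B13 in 20 mM Tris pH7.4 with 0.002% Tween-20 and 0.02% BSA was preincubated with inhibitor for 20 minutes at RT. The reaction ran 3 hours at 37° C with 50 uM estradiol and 1 mM NAD+ (final). NADH formed was detected by NAD(P)H-Glo luminescence after 1 hour at RT.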
For the compound `Cn1nc(-c2cc(C(F)(F)F)c(F)c(O)c2F)c2cnc(N3CCOCC3C3CCOCC3)cc21` (stereo not shown) [Compound 9.76, 2,6-Difluoro-3-(1-methyl-6-(3-(tetrahydro-2H-pyran-4-yl)morpholino)-1H-pyrazolo[4,3-c]pyridin-3-yl)-5-(trifluoromethyl)phenol], the IC50 is < 100 nM. In the case of `COCC1(NC(=O)c2ccc3oc(-c4cc(C(F)(F)F)c(F)c(O)c4F)nc3c2)CCC1` [Compound 1.26, 2-(2,4-Difluoro-3-hydroxy-5-(trifluoromethyl)phenyl)-N-(1-(methoxymethyl)cyclobutyl)benzo[d] oxazole-5-carboxamide], the half-inhibitory concentration (IC50) was < 100 nM. `Cn1nc(-c2cc(C(F)(F)F)c(F)c(O)c2F)c2cnc(N3CCN(S(C)(=O)=O)C(C)(C)C3)nc21` [Compound 18.64, 3-(6-(3,3-Dimethyl-4-(methylsulfonyl)piperazin-1-y1)-1-methyl-1H-pyrazolo[3,4-d]pyrimidin-3-y1)-2,6-difluoro-5-(trifluoromethyl)phenol]: the IC50 was < 100 nM. The value for `Cn1nc(-c2cc(C(F)(F)F)c(F)c(O)c2F)c2cnc(N3CCN(C(=O)c4ccncc4)CC3)nc21` [Compound 18.122, (4-(3-(2,4-Difluoro-3-hydroxy-5-(trifluoromethyl)phenyl)-1-methyl-1H-pyrazolo[3,4-d]pyrimidin-6-y1)piperazin-1-yl)(pyridin-4-yl)methanone] was 100 to 1000 nM; that for `N#CCC1(NC(=O)c2ccc3oc(-c4cc(C(F)(F)F)c(F)c(O)c4F)nc3c2)CCC1` [Compound 1.29, N-(1-(Cyanomethyl)cyclobutyl)-2-(2,4-difluoro-3-hydroxy-5-(trifluoromethyl)phenyl)benzo[d]oxa-zole-5-carboxamide] was < 100 nM. In the case of `Cn1nc(-c2cc(C(F)(F)F)c(F)c(O)c2F)c2cnc(N3CCN(C(=O)C4CCCCC4)CC3)nc21` [Compound 18.115, Cyclohexyl(4-(3-(2,4-difluoro-3-hydroxy-5-(trifluoromethyl)phenyl)-1-methyl-1H-pyrazolo[3,4-d]pyrimidin-6-yl)piperazin-1-yl)methanone], the IC50 was < 100 nM. The figure for `CC(=O)NC1CCN(c2ncc3c(-c4cc(C(F)(F)F)c(F)c(O)c4F)nn(C)c3n2)CC1` [Compound 18.22, N-(1-(3-(2,4-Difluoro-3-hydroxy-5-(trifluoromethyl)phenyl)-1-methyl-1H-pyrazolo[3,4-d]pyrimidin-6-y1)piperidin-4-yl)acetamide] is < 100 nM.

With `CCN1CCN(c2ncc3c(-c4cc(C(F)(F)F)c(F)c(O)c4F)nn(C)c3n2)CC1=O` [Compound 18.19, 4-(3-(2,4-Difluoro-3-hydroxy-5-(trifluoromethyl)phenyl)-1-methyl-1H-pyrazolo[3,4-d]pyrimidin-6-yl)-1-ethylpiperazin-2-one], the IC50 fell in the range of 100 to 1000 nM. For the compound `Cn1nc(-c2cc(C(F)(F)F)c(F)c(O)c2F)c2cnc(N3CCOCC3CO)nc21` (stereo not shown) [Compound 18.01, 2,6-Difluoro-3-(6-(3-(hydroxymethyl)morpholino)-1-methyl-1H-pyrazolo[3,4-d]pyrimidin-3-y1)-5-(trifluoromethyl)phenol], the 50% inhibitory concentration (IC50) was < 100 nM. In the case of `CCC1(O)CCN(c2ncc3c(-c4cc(C(F)(F)F)c(F)c(O)c4F)nn(C)c3n2)CC1` [Compound 18.66, 1-(3-(2,4-Difluoro-3-hydroxy-5-(trifluoromethyl)phenyl)-1-methyl-1H-pyrazolo[3,4-d]pyrimidin-6-yl)-4-ethylpiperidin-4-ol], the IC50 was < 100 nM. The figure for `Cn1nc(-c2cc(C(F)(F)F)c(F)c(O)c2F)c2cnc(N3CCN(C(=O)Nc4ccccc4)CC34CC4)cc21` [Compound 21.04, 4-(3-(2,4-Difluoro-3-hydroxy-5-(trifluoromethyl)phenyl)-1-methyl-1H-pyrazolo[4,3-c]pyridin-6-y1)-N-phenyl-4,7-diazaspiro[2.5]octane-7-carboxamide] is < 100 nM.

`Cn1nc(-c2cc(C(F)(F)F)c(F)c(O)c2F)c2cnc(N3CCOC(C(=O)O)C3)nc21` (stereo not shown) [Compound 18.43, 4-(3-(2,4-Difluoro-3-hydroxy-5-(trifluoromethyl)phenyl)-1-methyl-1H-pyrazolo[3,4-d]pyrimidin-6-yl)morpholine-2-carboxylic Acid]: the IC50 was in the range of 1000 to 30000 nM. The value for `CN(c1cc2c(nn1)c(-c1cc(C(F)(F)F)c(F)c(O)c1F)nn2C)C1CCOCC1` [Compound 9.120, 2,6-Difluoro-3-(1-methyl-6-(methyl(tetrahydro-2H-pyran-4-yl)amino)-1H-pyrazolo[4,3-c]pyridazin-3-yl)-5-(trifluoromethyl)phenol] was 100 to 1000 nM; that for `O=C(NC1COC1)c1ccc2oc(-c3cc(C(F)(F)F)c(F)c(O)c3F)nc2c1` [Compound 1.19, 2-(2,4-Difluoro-3-hydroxy-5-(trifluoromethyl)phenyl)-N-(oxetan-3-yl)benzo[d]oxazole-5-carboxamide] was 100 to 1000 nM; that for `Cn1nc(-c2cc(C(F)(F)F)c(F)c(O)c2F)c2cnc(N3CC4CC3CN4S(C)(=O)=O)nc21` (stereo not shown) [Compound 18.110, 2,6-Difluoro-3-(1-methyl-6-(5-(methylsulfony1)-2,5-diazabicyclo[2.2.1]heptan-2-y1)-1H-pyrazolo[3,4-d]pyrimidin-3-yl)-5-(trifluoromethyl)phenol] was < 100 nM. The figure for `CN1CCN(c2ncc3c(-c4cc(C(F)(F)F)c(F)c(O)c4F)nn(C)c3n2)CC1c1ccccc1` (stereo not shown) [Compound 18.94, 2,6-Difluoro-3-(1-methyl-6-(4-methyl-3-phenylpiperazin-1-y1)-1H-pyrazolo[3,4-d]pyrimidin-3-yl)-5-(trifluoromethyl)phenol] is < 100 nM; for `CN(c1ccc2c(-c3cc(C(F)(F)F)c(F)c(O)c3F)nn(C)c2n1)C1CCOCC1` [Compound 9.40, 2,6-Difluoro-3-(1-methyl-6-(methyl(tetrahydro-2H-pyran-4-yl)amino)-1H-pyrazolo[3,4-b]pyridin-3-yl)-5-(trifluoromethyl)phenol] it is < 100 nM. Turning to `Cn1nc(-c2cc(C(F)(F)F)c(F)c(O)c2F)c2cnc(N3CCOCC3C3(C)CC3)cc21` (stereo not shown) [Compound 9.61, 2,6-Difluoro-3-(1-methyl-6-(3-(1-methylcyclopropyl)morpholino)-1H-pyrazolo[4,3-c]pyridin-3-yl)-5-(trifluoromethyl)phenol], the 50% inhibitory concentration (IC50) is < 100 nM.

For `Cn1nc(-c2cc(C(F)(F)F)c(F)c(O)c2F)c2cnc(N(C3CCC3)C3CCOCC3)cc21` [Compound 9.29, 3-(6-(Cyclobutyl(tetrahydro-2H-pyran-4-yl)amino)-1-methyl-1H-pyrazolo[4,3-c]pyridin-3-yl)-2,6-difluoro-5-(trifluoromethyl)phenol], the half-inhibitory concentration (IC50) is < 100 nM. The figure for `O=C(NC12CC(C1)C2)c1ccc2oc(-c3cc(O)cc(C(F)(F)F)c3)nc2c1` [Compound 2.01, N-(Bicyclo[1.1.1]pentan-1-yl)-2-(3-hydroxy-5-(trifluoromethyl)phenyl)benzo[d]oxa-zole-5-carboxamide] is < 100 nM; for `Cn1nc(-c2cc(C(F)(F)F)c(F)c(O)c2F)c2cnc(N3CCCCC34CCC4)cc21` [Compound 9.59, 2,6-Difluoro-3-(1-methyl-6-(5-azaspiro[3.5]nonan-5-yl)-1H-pyrazolo[4,3-c]pyridin-3-yl)-5-(trifluoromethyl)phenol] it is < 100 nM. The figure for `Cn1nc(-c2cc(C(F)(F)F)c(F)c(O)c2F)c2cnc(N3CCOC(C4CC4)C3)nc21` (stereo not shown) [Compound 18.59, 3-(6-(2-Cyclopropylmorpholino)-1-methyl-1H-pyrazolo[3,4-d]pyrimidin-3-y1)-2,6-difluoro-5-(trifluoromethyl)phenol] is < 100 nM; for `Cn1nc(-c2cc(C(F)(F)F)c(F)c(O)c2F)c2cnc(N3CCOC(C)(C)C3)cc21` [Compound 9.33, 3-(6-(2,2-Dimethylmorpholino)-1-methyl-1H-pyrazolo[4,3-c]pyridin-3-yl)-2,6-difluoro-5-(trifluoromethyl)phenol] it is < 100 nM. The figure for `Cn1nc(-c2cc(C(F)(F)F)c(F)c(O)c2F)c2cnc(N3CCOCC3)nc21` [Compound 18.132, 2,6-Difluoro-3-(1-methyl-6-morpholino-1H-pyrazolo[3,4-d]pyrimidin-3-y1)-5-(trifluoromethyl)phenol] is < 100 nM.

Turning to `Cn1nc(-c2cc(C(F)(F)F)c(F)c(O)c2F)c2cnc(N3CCOCC3C3CCCCC3)nc21` (stereo not shown) [Compound 18.130, 3-(6-(3-Cyclohexylmorpholino)-1-methyl-1H-pyrazolo[3,4-d]pyrimidin-3-y1)-2,6-difluoro-5-(trifluoromethyl)phenol], the IC50 was < 100 nM. The figure for `Cn1nc(-c2cc(C(F)(F)F)c(F)c(O)c2F)c2cnc(N3CCOCC34CCC4)nc21` [Compound 9.110, 2,6-Difluoro-3-(1-methyl-6-(8-oxa-5-azaspiro[3.5]nonan-5-yl)-1H-pyrazolo[3,4-d]pyrimidin-3-yl)-5-(trifluoromethyl)phenol] is < 100 nM; for `CS(=O)(=O)N1CCN(c2cc3oc(-c4cc(O)c(F)c(C(F)(F)F)c4)nc3cn2)CC1` [Compound 6.01, 2-Fluoro-5-(6-(4-(methylsulfonyl)piperazin-1-yl)oxazolo[4,5-c]pyridin-2-yl)-3-(trifluoromethyl)phenol] it is 100 to 1000 nM. The figure for `Oc1c(F)c(-c2nn(C3COC3)c3cc(N4CCOCC45CC5)ncc23)cc(C(F)(F)F)c1F` [Compound 9.55, 2,6-Difluoro-3-(1-(oxetan-3-yl)-6-(7-oxa-4-azaspiro [2.5]octan-4-yl)-1H-pyrazolo[4,3-c]pyridin-3-yl)-5-(trifluoromethyl)phenol] is < 100 nM.

Usually IC50 stands for the concentration needed to halve the response being measured.
